Reference: US20240076293A1, “Compositions and Methods for Inhibiting Fibrosis, Inflammation and Cancer” (Georgia Tech Research Corporation, priority 2020, published 2024)
Where two headings read alike, the source gives them in different places.

Tests used:
Format in all cases: cell-based
A549 = experiment: Anti-proliferation IC50, A549; details: Homo sapiens
Hep-G2 = experiment: Anti-proliferation IC50, Hep-G2; details: Homo sapiens, HepG2
[1] = Anti-proliferation IC50, MRC-5; details: human, MRC-5 cells; Table 1, compounds of formula I; NI = no inhibition up to 500 μM
VERO = experiment: Anti-proliferation IC50, VERO; details: Chlorocebus sabaeus
MRC-5 = experiment: Anti-proliferation IC50, MRC-5; details: Homo sapiens, MRC5; Table 2, compounds of formula II
[2] = Table 1, compounds of formula I, NI = no inhibition up to 500 μM, read-out: A549 (IC50)
[3] = Table 1, compounds of formula I, NI = no inhibition up to 500 μM, read-out: Hep-G2 (IC50)
[4] = Table 1, compounds of formula I, NI = no inhibition up to 500 μM, read-out: VERO (IC50)
[5] = Table 2, compounds of formula II, read-out: Anti-proliferation IC50 A549
[6] = Table 2, compounds of formula II, read-out: Anti-proliferation IC50 Hep-G2
[7] = Table 2, compounds of formula II, read-out: Anti-proliferation IC50 VERO

| Structure (SMILES) | IC50 (A549; [2]) [µM] | IC50 (Hep-G2; [3]) [µM] | IC50 [1] [µM] | IC50 (VERO; [4]) [µM] | IC50 (A549; [5]) [µM] | IC50 (Hep-G2; [6]) [µM] | IC50 (MRC-5) [µM] | IC50 (VERO; [7]) [µM] |
| --- | --- | --- | --- | --- | --- | --- | --- | --- |
| CC[C@H]1OC(=O)[C@@H](C)[C@@H](O[C@@H]2C[C@](C)(OC)[C@H](O)[C@@H](C)O2)[C@@H](C)[C@@H](O[C@H]2O[C@@H](C)C[C@@H](N(C)C)[C@@H]2OC(=O)/C=C/C=C/c2ccc3c(c2)OCO3)[C@](C)(OC)C[C@@H](C)C(=O)[C@H](C)[C@H](O)[C@]1(C)O | 16.9 ± 0.7 | 5.6 ± 0.1 | 7.8 ± 0.7 | 21 ± 2.3 |  |  |  |  |
| CC[C@@H]1OC(=O)[C@@H](C)[C@H](O)[C@@H](C)[C@H](O[C@H]2O[C@@H](C)C[C@@H](N(C)Cc3ccc(-c4cn(CCNC(=O)CCCC[C@H]5CCSS5)nn4)cc3)[C@@H]2O)C(C)(O)C[C@H](C)CN(C)[C@@H](C)[C@H](O)[C@@]1(C)O (some centres unmarked) |  |  |  |  | 27.4 ± 0.5 | 14.8 ± 2.1 | 17.9 ± 0.5 | 47.7 ± 6.2 |
| CC[C@@H]1OC(=O)[C@@H](C)[C@H](O)[C@@H](C)[C@H](O[C@H]2O[C@@H](C)C[C@@H](N(C)Cc3ccc(-c4cn(CCCNC(=O)CCCC[C@H]5CCSS5)nn4)cc3)[C@@H]2O)C(C)(O)C[C@H](C)CN(C)[C@@H](C)[C@H](O)[C@@]1(C)O (some centres unmarked) |  |  |  |  | 92.9 ± 13 | 157 ± 11.4 | 145 ± 3.5 | 168 ± 19.7 |
| CC[C@@H]1OC(=O)[C@@H](C)[C@H](O[C@H]2C[C@@](C)(OC)[C@@H](O)[C@H](C)O2)[C@@H](C)[C@H](O[C@H]2O[C@@H](C)C[C@@H](N(C)C)[C@@H]2OC(=O)/C=C/C=C/c2ccc3c(c2)OCO3)C(C)(O)C[C@H](C)CN(C)[C@@H](C)[C@H](O)[C@@]1(C)O (some centres unmarked) |  |  |  |  | 15.6 ± 2.6 | 5 ± 0.5 | 3.8 ± 0.8 | 13.2 ± 1.5 |
| CC[C@@H]1OC(=O)[C@@H](C)[C@H](O[C@H]2C[C@@](C)(OC)[C@@H](O)[C@H](C)O2)C(C)[C@H](O[C@H]2O[C@@H](C)C[C@@H](N(C)C(=O)/C=C/C=C/c3ccc4c(c3)OCO4)[C@@H]2O)C(C)(O)C[C@H](C)CN(C)[C@@H](C)[C@H](O)[C@@]1(C)O (some centres unmarked) |  |  |  |  | 19.6 ± 1.8 | 10.2 ± 1.9 | 11.4 ± 0.4 | 12.9 |
| CC[C@@H]1OC(=O)[C@@H](C)[C@H](O[C@H]2C[C@@](C)(OC)[C@@H](O)[C@H](C)O2)[C@@H](C)[C@H](O[C@H]2O[C@@H](C)C[C@@H](N(C)C(=O)/C=C/C(=O)OC)[C@@H]2O)C(C)(O)C[C@H](C)CN(C)[C@@H](C)[C@H](O)[C@@]1(C)O (some centres unmarked) |  |  |  |  | 214 | 126 |  | 212 |
| CC[C@H]1OC(=O)[C@H](C)[C@@H](O[C@H]2C[C@@](C)(OC)[C@@H](O)[C@H](C)O2)[C@H](C)[C@@H](O[C@@H]2O[C@H](C)C[C@H](N(C)C)[C@H]2O)[C@](C)(O)C[C@@H](C)CN(C)[C@H](C)[C@@H](O)[C@]1(C)O [Azithromycin (AZM), Azithromycin, reference compound] | 204 ± 4.5 | 85.3 ± 0.9 | 127 ± 1 | 222 ± 18.1 |  |  |  |  |
| CC[C@H]1OC(=O)[C@H](C)[C@@H](O[C@H]2C[C@@](C)(OC)[C@@H](O)[C@H](C)O2)[C@H](C)[C@@H](O[C@@H]2O[C@H](C)C[C@H](N(C)C)[C@H]2O)[C@](C)(OC)C[C@@H](C)C(=O)[C@H](C)[C@@H](O)[C@]1(C)O [Clarithromycin (CLM), Clarithromycin, reference compound] | > 500 | 130 | 138.1 ± 1.1 | > 500 |  |  |  |  |
| CCC1OC(=O)[C@H](C)[C@H](OC2C[C@@](C)(OC)[C@@H](O)[C@H](C)O2)[C@H](C)[C@@H](OC2O[C@H](C)C[C@H](N(C)Cc3ccc(-n4cc(C)ccc4=O)cc3)[C@H]2O)[C@@](C)(OC)C[C@@H](C)C(=O)[C@H](C)[C@@H](O)[C@]1(C)O (some centres unmarked) [Compound 10a] | > 500 | > 500 | > 500 | > 500 |  |  |  |  |
| CCC1OC(=O)[C@H](C)[C@H](OC2C[C@@](C)(OC)[C@@H](O)[C@H](C)O2)[C@H](C)[C@@H](OC2O[C@H](C)C[C@H](N(C)Cc3cn(Cc4ccc(-n5cc(C)ccc5=O)cc4)nn3)[C@H]2O)[C@@](C)(OC)C[C@@H](C)C(=O)[C@H](C)[C@@H](O)[C@]1(C)O (some centres unmarked) [Compound 10b] | 118 ± 28.4 | 116 ± 16 | 102.6 ± 0.8 | 153 ± 19 |  |  |  |  |
| CCC1OC(=O)[C@H](C)[C@H](OC2C[C@@](C)(OC)[C@@H](O)[C@H](C)O2)[C@H](C)[C@@H](OC2O[C@H](C)C[C@H](N(C)Cc3ccc(-c4cn(Cc5ccc(-n6cc(C)ccc6=O)cc5)nn4)cc3)[C@H]2O)[C@@](C)(OC)C[C@@H](C)C(=O)[C@H](C)[C@@H](O)[C@]1(C)O (some centres unmarked) [Compound 10c] | 11.1 ± 2.7 | 20.3 ± 1 | 12.3 ± 1.8 | 5.1 ± 0.2 |  |  |  |  |
| CCC1OC(=O)[C@H](C)[C@H](OC2C[C@@](C)(OC)[C@@H](O)[C@H](C)O2)[C@H](C)[C@@H](OC2O[C@H](C)C[C@H](N(C)CCc3ccc(-n4cc(C)ccc4=O)cc3)[C@H]2O)[C@@](C)(OC)C[C@@H](C)C(=O)[C@H](C)[C@@H](O)[C@]1(C)O (some centres unmarked) [Compound 12a] | > 500 | > 500 | 119 | > 500 |  |  |  |  |
| CCC1OC(=O)[C@H](C)[C@H](OC2C[C@@](C)(OC)[C@@H](O)[C@H](C)O2)[C@H](C)[C@@H](OC2O[C@H](C)C[C@H](N(C)Cc3cn(CCc4ccc(-n5cc(C)ccc5=O)cc4)nn3)[C@H]2O)[C@@](C)(OC)C[C@@H](C)C(=O)[C@H](C)[C@@H](O)[C@]1(C)O (some centres unmarked) [Compound 12b] | 116 ± 4.1 | 122 ± 3.7 | 84 ± 4.5 | 104 ± 20.3 |  |  |  |  |
| CCC1OC(=O)[C@H](C)[C@H](OC2C[C@@](C)(OC)[C@@H](O)[C@H](C)O2)[C@H](C)[C@@H](OC2O[C@H](C)C[C@H](N(C)Cc3ccc(-c4cn(CCc5ccc(-n6cc(C)ccc6=O)cc5)nn4)cc3)[C@H]2O)[C@@](C)(OC)C[C@@H](C)C(=O)[C@H](C)[C@@H](O)[C@]1(C)O (some centres unmarked) [Compound 12c] | 35.3 ± 1.5 | 28.1 ± 1.8 | 13.1 ± 1.2 | 14.2 ± 0.3 |  |  |  |  |
| CCC1OC(=O)[C@H](C)[C@H](OC2C[C@@](C)(OC)[C@@H](O)[C@H](C)O2)[C@H](C)[C@@H](OC2O[C@H](C)C[C@H](N(C)CCCCc3ccc(-n4cc(C)ccc4=O)cc3)[C@H]2O)[C@@](C)(OC)C[C@@H](C)C(=O)[C@H](C)[C@@H](O)[C@]1(C)O (some centres unmarked) [Compound 14a] | 16.3 ± 1.6 | 30.9 ± 1.4 | 15.7 ± 2.3 | 19 ± 3.7 |  |  |  |  |
| CCC1OC(=O)[C@H](C)[C@H](OC2C[C@@](C)(OC)[C@@H](O)[C@H](C)O2)[C@H](C)[C@@H](OC2O[C@H](C)C[C@H](N(C)Cc3cn(CCCCc4ccc(-n5cc(C)ccc5=O)cc4)nn3)[C@H]2O)[C@@](C)(OC)C[C@@H](C)C(=O)[C@H](C)[C@@H](O)[C@]1(C)O (some centres unmarked) [Compound 14b] | 28.7 ± 3.4 | 44.8 ± 3.6 | 32.8 ± 5.1 | 33.3 ± 1.9 |  |  |  |  |
| CCC1OC(=O)[C@H](C)[C@H](OC2C[C@@](C)(OC)[C@@H](O)[C@H](C)O2)[C@H](C)[C@@H](OC2O[C@H](C)C[C@H](N(C)Cc3ccc(-c4cn(CCCCc5ccc(-n6cc(C)ccc6=O)cc5)nn4)cc3)[C@H]2O)[C@@](C)(OC)C[C@@H](C)C(=O)[C@H](C)[C@@H](O)[C@]1(C)O (some centres unmarked) [Compound 14c] | 10.9 ± 0.4 | 36.4 ± 6.6 | 11.6 ± 0.3 | 12.4 ± 0.2 |  |  |  |  |
| CCC1OC(=O)[C@H](C)[C@H](OC2C[C@@](C)(OC)[C@@H](O)[C@H](C)O2)[C@H](C)[C@@H](OC2O[C@H](C)C[C@H](N(C)CC#Cc3ccc(-n4cc(C)ccc4=O)cc3)[C@H]2O)[C@@](C)(OC)C[C@@H](C)C(=O)[C@H](C)[C@@H](O)[C@]1(C)O (some centres unmarked) [Compound 19a] | 44.1 ± 10.8 | 50.7 ± 3 | 82.6 ± 0.3 | 55.5 ± 2.6 |  |  |  |  |
| CCC1OC(=O)[C@H](C)[C@H](OC2C[C@@](C)(OC)[C@@H](O)[C@H](C)O2)[C@H](C)[C@@H](OC2O[C@H](C)C[C@H](N(C)CCC#Cc3ccc(-n4cc(C)ccc4=O)cc3)[C@H]2O)[C@@](C)(OC)C[C@@H](C)C(=O)[C@H](C)[C@@H](O)[C@]1(C)O (some centres unmarked) [Compound 19b] | 59.9 ± 0.8 | 60.9 ± 9 | > 500 | 130 ± 21.2 |  |  |  |  |
| CCC1OC(=O)[C@H](C)[C@H](OC2C[C@@](C)(OC)[C@@H](O)[C@H](C)O2)[C@H](C)[C@@H](OC2O[C@H](C)C[C@H](N(C)CCCC#Cc3ccc(-n4cc(C)ccc4=O)cc3)[C@H]2O)[C@@](C)(OC)C[C@@H](C)C(=O)[C@H](C)[C@@H](O)[C@]1(C)O (some centres unmarked) [Compound 19c] | 58.6 ± 1.4 | 24 ± 1.2 | 15.2 ± 0.1 | 55.5 ± 0.4 |  |  |  |  |
| CCC1OC(=O)[C@H](C)[C@H](OC2C[C@@](C)(OC)[C@@H](O)[C@H](C)O2)[C@H](C)[C@@H](OC2O[C@H](C)C[C@H](N(C)CCCCC#Cc3ccc(-n4cc(C)ccc4=O)cc3)[C@H]2O)[C@@](C)(OC)C[C@@H](C)C(=O)[C@H](C)[C@@H](O)[C@]1(C)O (some centres unmarked) [Compound 19d] | 35.4 ± 2.1 | 32 ± 0.1 | 28.9 ± 1.9 | 24.3 ± 0.1 |  |  |  |  |
| CCC1OC(=O)[C@H](C)[C@H](OC2C[C@@](C)(OC)[C@@H](O)[C@H](C)O2)[C@H](C)[C@@H](OC2O[C@H](C)C[C@H](N(C)CCCCCC#Cc3ccc(-n4cc(C)ccc4=O)cc3)[C@H]2O)[C@@](C)(OC)C[C@@H](C)C(=O)[C@H](C)[C@@H](O)[C@]1(C)O (some centres unmarked) [Compound 19e] | 23.8 ± 2.1 | 23.7 ± 2 | 24.2 ± 0.6 | 13.2 ± 0.7 |  |  |  |  |
| O=C(O)/C=C/C=C/c1ccc2c(c1)OCO2 [Piperic acid (PPA), Piperic acid, reference compound] | > 500 | > 500 | > 500 | > 500 |  |  |  |  |
| Cc1ccc(=O)n(-c2ccccc2)c1 [Pirfenidone (Pir), Pirfenidone, reference compound] | 5410 ± 241 | 10900 | 5300 ± 178 | 10788 ± 0.6 |  |  |  |  |
